“Also recorded” adds a separate entry of the source. Where two headings read alike, the source gives them in different places.
Legend:
[1] = test system: lipid parameters (markers of lipid metabolism); assay: Fasting serum lipid profile in 52-week clinical study; assay type: in vivo, patients; conditions: for Apo A1, Change From Baseline, Mean / Apo B, Change From Baseline, Mean / Free Fatty Acids, Change From Baseline, Mean / Free Fatty Acids, Change From Baseline, Median / HDL Cholesterol, Change From Baseline, Mean / HDL Cholesterol, Change From Baseline, Median / LDL Cholesterol, Change From Baseline, Mean / LDL Cholesterol, Change From Baseline, Median / LP(a), Change From Baseline, Mean / Total Cholesterol, Change From Baseline, Mean / Total Cholesterol, Change From Baseline, Median / Triglycerides, Change From Baseline, Mean / Triglycerides, Change From Baseline, Median / VLDL Cholesterol, Change From Baseline, Mean / VLDL Cholesterol, Change From Baseline, Median: ITT, Week 52; for LDL adjusted mean increase, difference from glyburide / total cholesterol adjusted mean increase, difference from glyburide: Month 12
Experimental: After an initial screening visit, patients meeting the inclusion criteria entered a 4-week baseline phase (unblinded) in which they received 12 mg micronized glyburide (6 mg BID).
Secondary efficacy parameters included markers of glycemic homeostasis (insulin and C-peptide) and markers of lipid metabolism (total cholesterol, total triglycerides, HDL, VLDL, LDL (measured), free fatty acids, Lp(a), Apo A1, and Apo B).
Efficacy analysis was performed on 2 patient populations, intent-to-treat and completers. […] Patients withdrawing from the study before Week 52 were included in the analysis using the LOCF procedure; the last measurement on treatment was substituted for the missing Week 52 measurement. The intent-to-treat patient sample was the primary sample for assessing efficacy. Completers comprised patients in the intent-to-treat sample who completed Week 52.
Summary statistics for baseline, follow-up (post-randomization), and change from baseline in secondary efficacy parameters were computed by treatment group and visit. For each patient, the baseline measurements for insulin, C-peptide, blood pressure, total cholesterol, triglycerides, LDL, HDL, VLDL, and free fatty acids were defined as the measurement at Week 0. In order to reduce variability, the baseline Apo A, Apo B, and Lp(a) levels were defined as the average of the respective measurements at Weeks -1 and 1. Similarly, the end-of-treatment Apo A, Apo B, and Lp(a) measurements were defined as the average of the respective measurements at Weeks 48 and 52. Averages from Weeks 20 and 24 were not carried forward for these special lipid parameters.
Fasting serum lipid profiles were determined at baseline and periodically through Week 52. Apo A1, Apo B, and Lp(a) were determined only at baseline, Month 6, and Month 12 as part of a special laboratory panel.

[2] = Safety: adverse events and clinical laboratory measurements; assay type: in vivo, patients
Experimental: A complete physical examination and ECG were performed during screening and at the end of the study. Clinical laboratory parameters and vital signs including blood pressure were monitored throughout the study for safety reasons. Adverse events were recorded during clinic visits and evaluated by the investigator for intensity and relationship to study drug. Reduction in the daily dose of micronized glyburide could occur in cases of documented hypoglycemia.
All patients randomized to treatment were included in all safety evaluations.
Hypoglycemia, defined as an FSG <50 mg/dL (verified laboratory value), was to be recorded as an adverse event.
Adverse events that were treatment emergent (not present at baseline) are summarized in the following section using a modified COSTART dictionary. If, however, an adverse event present at baseline increased in intensity or frequency during treatment, the event was included in the summaries. Each patient reporting an adverse event was counted only once for that event regardless of the number of times the adverse event was reported. Associated adverse events were those considered by the investigator to be possibly, probably, or definitely related to study therapy.
Baseline clinical laboratory parameters were compared with values at the end of the study (last visit) to identify any abnormal trends. The percent of patients with increases or decreases in laboratory values were calculated based on the number of patients at risk for changes outside of the reference range; i.e., patients with low or high values at baseline were not considered at risk for a decrease or increase, respectively.
Laboratory results were then reviewed for these particular patients to determine which patients actually had clinically important changes in a given laboratory parameter.

[3] = Trough plasma concentrations of troglitazone; assay type: in vivo, patients; conditions: Week 12; for concentration at 2016 h: human, plasma, po, alone or + glyburide, read-out: Mean (% RSD) Trough Plasma Concentration of Troglitazone
Experimental: Trough plasma concentrations of troglitazone were determined at Week 12. Blood samples (7 mL) were collected in heparinized glass tubes. Following centrifugation, plasma samples were transferred to plastic tubes and stored at -20° C. until assayed. Plasma samples were assayed at Corning Hazleton, Inc., PO Box 7545, Madison, Wis., 53707, using a validated liquid chromatographic method with electrochemical detection. The minimum quantitation limit for troglitazone was 5 ng/mL. Concentrations below the limit of quantitation were reported as zero. The analysts remained blinded to the treatment randomization code during sample analysis.

[4] = patients studied to date; cited from earlier work
[5] = test system: postprandial glucose tolerance; assay: 2-hour meal tolerance test (postprandial glucose, insulin, C-peptide AUC); assay type: in vivo, patients; conditions: Month 12, vs glyburide, p ≤0.05; all combination doses and 600 mg troglitazone monotherapy
Experimental: The effect of treatment on the pattern of postprandial glucose tolerance (standard 2-hour meal tolerance test) was determined in a subset of patients.
A 2-hour meal tolerance test to assess postprandial glucose and insulin excursions in response to a premeasured meal (breakfast) was conducted in a subset of patients at baseline, Week 24, and at the end of treatment. […] Additional parameters included total insulin and C-peptide. Analyses of the meal tolerance parameters were based on observations at the end of treatment; observations from Week 24 were not carried forward.
Summary statistics for glucose, insulin, and C-peptide levels every 30 minutes for 2 hours were provided at baseline, and Months 6 and 12.
The change from baseline in each response variable was compared between treatment groups using analysis of covariance. The analysis included all patients who had baseline and Month 12 test data. The primary model included effects due to treatment and center and baseline as covariate. The 95% confidence interval for the treatment difference based on the primary model was provided for each pairwise comparison of treatment groups.
Meal tolerance testing was performed in a subset of patients at baseline and at Months 6 and 12. Postprandial glucose, insulin, and C-peptide levels were determined at 30, 60, 90, and 120 minutes after a standard meal (Sustacal HC) (Table 13).

[6] = troglitazone 200 mg, or 200 mg/12 mg in combination
[7] = troglitazone 400 mg, or 400 mg/12 mg in combination
[8] = troglitazone 600 mg, or 600 mg/12 mg in combination
[9] = glyburide monotherapy (active control)

In the case of `Cc1c(C)c2c(c(C)c1O)CCC(C)(COc1ccc(CC3SC(=O)NC3=O)cc1)O2` (stereo not shown) [Troglitazone], the “HDL adjusted mean change, difference from glyburide” value ([1]; 600 mg troglitazone monotherapy, p<0.05) is reported as 4.9 mg/dL, the “Apo A1, Change From Baseline, Mean” value [1, 6] is reported as 1.9 mg/dL and the “Apo B, Change From Baseline, Mean” value [1, 6] is reported as 6.4 mg/dL. For the same molecule, the “Free Fatty Acids, Change From Baseline, Mean” value [1, 6] was -0.09 mEq/L, the “Free Fatty Acids, Change From Baseline, Median” value [1, 6] was -0.04 mEq/L and the “HDL Cholesterol, Change From Baseline, Mean” value [1, 6] was 0.86 mg/dL. The “HDL Cholesterol, Change From Baseline, Median” value [1, 6] was 1.00 mg/dL, the “LDL Cholesterol, Change From Baseline, Mean” value [1, 6] was 17.78 mg/dL and the “LDL Cholesterol, Change From Baseline, Median” value [1, 6] was 20.50 mg/dL. The “LP(a), Change From Baseline, Mean” value [1, 6] was 8.8 mg/dL, the “Total Cholesterol, Change From Baseline, Mean” value [1, 6] was 19.96 mg/dL and the “Total Cholesterol, Change From Baseline, Median” value [1, 6] was 21.00 mg/dL. For the same molecule, the “Triglycerides, Change From Baseline, Mean” value [1, 6] was -35.77 mg/dL, the “Triglycerides, Change From Baseline, Median” value [1, 6] was 3.50 mg/dL and the “VLDL Cholesterol, Change From Baseline, Mean” value [1, 6] was 3.54 mg/dL. The “VLDL Cholesterol, Change From Baseline, Median” value [1, 6] was 3.50 mg/dL, the “Apo A1, Change From Baseline, Mean” value [1, 7] was -1.5 mg/dL and the “Apo B, Change From Baseline, Mean” value [1, 7] was 3.4 mg/dL. For the same molecule, the “Free Fatty Acids, Change From Baseline, Mean” value [1, 7] was -0.17 mEq/L, the “Free Fatty Acids, Change From Baseline, Median” value [1, 7] was -0.12 mEq/L and the “HDL Cholesterol, Change From Baseline, Mean” value [1, 7] was 2.99 mg/dL. The “HDL Cholesterol, Change From Baseline, Median” value [1, 7] was 3.00 mg/dL, the “LDL Cholesterol, Change From Baseline, Mean” value [1, 7] was 12.09 mg/dL and the “LDL Cholesterol, Change From Baseline, Median” value [1, 7] was 11.00 mg/dL. The “LP(a), Change From Baseline, Mean” value [1, 7] was 10.0 mg/dL, the “Total Cholesterol, Change From Baseline, Mean” value [1, 7] was 24.78 mg/dL and the “Total Cholesterol, Change From Baseline, Median” value [1, 7] was 20.00 mg/dL. For the same molecule, the “Triglycerides, Change From Baseline, Mean” value [1, 7] was -3.86 mg/dL, the “Triglycerides, Change From Baseline, Median” value [1, 7] was -2.00 mg/dL and the “VLDL Cholesterol, Change From Baseline, Mean” value [1, 7] was 8.48 mg/dL. For the same molecule, the “VLDL Cholesterol, Change From Baseline, Median” value [1, 7] was 3.00 mg/dL, the “Apo A1, Change From Baseline, Mean” value [1, 8] was -1.9 mg/dL and the “Apo B, Change From Baseline, Mean” value [1, 8] was 3.1 mg/dL. For the same molecule, the “Free Fatty Acids, Change From Baseline, Mean” value [1, 8] was -0.19 mEq/L, the “Free Fatty Acids, Change From Baseline, Median” value [1, 8] was -0.11 mEq/L and the “HDL Cholesterol, Change From Baseline, Mean” value [1, 8] was 4.53 mg/dL. For the same molecule, the “HDL Cholesterol, Change From Baseline, Median” value [1, 8] was 3.00 mg/dL, the “LDL Cholesterol, Change From Baseline, Mean” value [1, 8] was 16.21 mg/dL and the “LDL Cholesterol, Change From Baseline, Median” value [1, 8] was 15.00 mg/dL. For the same molecule, the “LP(a), Change From Baseline, Mean” value [1, 8] was 9.1 mg/dL, the “Total Cholesterol, Change From Baseline, Mean” value [1, 8] was 25.88 mg/dL and the “Total Cholesterol, Change From Baseline, Median” value [1, 8] was 20.50 mg/dL. For the same molecule, the “Triglycerides, Change From Baseline, Mean” value [1, 8] was -9.59 mg/dL, the “Triglycerides, Change From Baseline, Median” value [1, 8] was -24.00 mg/dL and the “VLDL Cholesterol, Change From Baseline, Mean” value [1, 8] was -0.36 mg/dL. The “VLDL Cholesterol, Change From Baseline, Median” value [1, 8] was -3.00 mg/dL, the “LDL adjusted mean increase, difference from glyburide” value ([1]; 200 mg, p<0.05) was 23 mg/dL and the “total cholesterol adjusted mean increase, difference from glyburide” value ([1]; 200 mg, p<0.05) was 25 mg/dL. For the same molecule, the “total cholesterol adjusted mean increase, difference from glyburide” value ([1]; 400 mg, p<0.05) was 26 mg/dL, the “LDL adjusted mean increase, difference from glyburide” value ([1]; 600 mg, p<0.05) was 19 mg/dL and the “total cholesterol adjusted mean increase, difference from glyburide” value ([1]; 600 mg, p<0.05) was 28 mg/dL. The “atherogenic risk / lipid profile (result in words)” value ([1]; mono- or combination therapy) was “do not negatively impact atherogenic risk”, the “patients with mildly elevated liver enzymes (<3×upper normal limit) at end of study” value ([2]; 200 mg monotherapy) was “one” and the “adverse event profile versus glyburide monotherapy (result in words)” value ([2]; human, in vivo) was “Most adverse events occurred at the lower incidence in patients treated with troglitazone monotherapy compared with the patients treated with glyburide monotherapy”. For the same molecule, the “hematological parameters (result in words)” value ([2]; human, in vivo) was “no patient experienced clinically important decreases in any hematological parameter that can be directly attributable to troglitazone”, the “patients with adverse events” value ([2]; overall, all doses) was 70% and the “patients with mildly transient decreases in hemoglobin/hematocrit which returned to baseline” value ([2]; remaining on drug, mono: two on 400 mg, one on 600 mg, combination: three on 400 mg/12 mg, one on 600 mg/12 mg) was 3 patients. The “tolerability (result in words)” value ([2]; throughout the study) was “well-tolerated throughout the study; also recorded: well-tolerated during the study”, the “trough plasma troglitazone concentrations (result in words)” value ([3]; dose dependence, mono versus combination) was “Mean trough troglitazone concentrations generally increased with increasing troglitazone doses” and the concentration at 2016 h ([3]; 200 mg QD) was 145 ng/mL. The concentration at 2016 h ([3]; 400 mg QD) was 238 ng/mL, the concentration at 2016 h ([3]; 600 mg QD) was 285 ng/mL and the “hypoglycemia (result in words)” value [4] was “has not caused hypoglycemia”. The “mean glucose AUC(0-2 hr) (result in words)” value [5] was “decreased significantly (p ≤0.05) compared with glyburide”.

For `COc1ccc(Cl)cc1C(=O)NCCc1ccc(S(=O)(=O)NC(=O)NC2CCCCC2)cc1` [Glyburide], the “LDL Cholesterol, Change From Baseline, Mean” value ([1]; Glynase (active control)) was 3.49 mg/dL, the “LDL Cholesterol, Change From Baseline, Median” value ([1]; Glynase (active control)) was 4.00 mg/dL and the “Total Cholesterol, Change From Baseline, Mean” value ([1]; Glynase (active control)) was 6.17 mg/dL. For the same molecule, the “Total Cholesterol, Change From Baseline, Median” value ([1]; Glynase (active control)) was 6.50 mg/dL, the “Apo A1, Change From Baseline, Mean” value [1, 9] was -1.1 mg/dL and the “Apo B, Change From Baseline, Mean” value [1, 9] was 2.9 mg/dL. For the same molecule, the “Free Fatty Acids, Change From Baseline, Mean” value [1, 9] was -0.05 mEq/L, the “Free Fatty Acids, Change From Baseline, Median” value [1, 9] was 0.03 mEq/L and the “HDL Cholesterol, Change From Baseline, Mean” value [1, 9] was -0.15 mg/dL. The “HDL Cholesterol, Change From Baseline, Median” value [1, 9] was -1.00 mg/dL, the “LP(a), Change From Baseline, Mean” value [1, 9] was 1.4 mg/dL and the “Triglycerides, Change From Baseline, Mean” value [1, 9] was 14.24 mg/dL. For the same molecule, the “Triglycerides, Change From Baseline, Median” value [1, 9] was 8.00 mg/dL, the “VLDL Cholesterol, Change From Baseline, Mean” value [1, 9] was -2.78 mg/dL and the “VLDL Cholesterol, Change From Baseline, Median” value [1, 9] was -1.00 mg/dL. The “Triglycerides, Change From Baseline, Mean” value ([1]; glyburide monotherapy (active control), listed as glyburide) was 14 mg/dL, the “associated adverse events, incidence” value ([2]; overall, all doses) was 10% and the “patients with adverse events” value ([2]; overall, all doses) was 90%.

Reference: patent publication US5859037A, “Sulfonylurea-glitazone combinations for diabetes” (Warner-Lambert Company, priority 1997, dated 1999)
